# Laboratory results as given in US12691136B2, “Metal compositions and methods of use thereof” (THE UNIVERSITY OF MASSACHUSETTS, priority 2020, dated 2026).
# “Also recorded” adds a separate entry of the source. Where two headings read alike, the source gives them in different places.
# Columns and labels:
# [1] = system: Pseudomonas aeruginosa PAO1; test: Antibacterial assay / bacterial checkerboard assay (MIC, FIC, MBC); settings: for Enhancement: MIC without TU vs with 7 mM TU; for change in MIC / activity with the addition of TU (isobologram): FIG. 1A / 1B, combination with TU; for Fold Improvement in MIC: at the best FIC; for impact of TU on activity: common antibiotics with TU, Table 3 entries; for Best FIC: with TU at the [TU] of the same line; for MIC: Pseudomonas aeruginosa
# [2] = system: Pseudomonas aeruginosa PAO1; settings: reference antibiotics against P. aeruginosa PAO1; cited from earlier work
# [3] = [Au], Table 8, strain not given
compound,measurement,setting,value
"CC(=O)OC[C@H]1O[C@@H]([S-])[C@H](OC(C)=O)[C@@H](OC(C)=O)[C@@H]1OC(C)=O.CCP(CC)CC.[Au+] [Auranofin, auranofin]",MIC (0 mM TU),"[1]; [Au], Table 9",377 µM
same,activity enhancement,[1]; 7 mM TU vs alone,256 fold
same,MIC (7 mM TU),"[1]; [Au], Table 9",1.5 µM
same,Enhancement,[1]; Table 9,256
Gentamicin,change in MIC / activity with the addition of TU (isobologram),[1],very little change; also recorded: almost no change
same,MIC with TU,[1]; TU at the [TU] of the same line (best FIC),4.0 µM
same,Fold Improvement in MIC,[1],1
same,impact of TU on activity,[1],no impact
same,Best FIC,[1],1.0
same,MIC w/o TU,[1]; without TU,4.0 µM
CCN1CCN(C(=O)N[C@@H](C(=O)N[C@@H]2C(=O)N3[C@@H]2SC(C)(C)[C@@H]3C(=O)O)c2ccccc2)C(=O)C1=O [Piperacillin],change in MIC / activity with the addition of TU (isobologram),[1],very little change
same,change in MIC / activity with the addition of TU (isobologram),[1]; listed as piperacillin,almost no change
same,MIC,"[1]; PAO1, read-out: MIC w/o TU",2 µM
same,MIC,"[1]; PAO1, read-out: MIC with TU",2 µM
same,Fold Improvement in MIC,[1],1
same,impact of TU on activity,[1],no impact
same,Best FIC,[1],1.0
"C[PH](C)(C)[Au][S]CCO [MS-40, trimethylphosphine gold(I) mercaptoethanol]",MIC (0 mM TU),[1]; [3],5.7 µM
same,MIC (1 mM TU),"[1]; 1 mM TU, [Au], Table 8, strain not given",5.7 µM
same,MIC (2 mM TU),"[1]; 2 mM TU, [Au], Table 8, strain not given",5.7 µM
same,MIC (3 mM TU),"[1]; 3 mM TU, [Au], Table 8, strain not given",5.7 µM
same,MIC (7 mM TU),[1]; [3],5.7 µM
same,MIC (13 mM TU),"[1]; 13 mM TU, [Au], Table 8, strain not given",2.9 µM
same,MIC (27 mM TU),"[1]; 27 mM TU, [Au], Table 8, strain not given",2.9 µM
same,MIC (54 mM TU),"[1]; 54 mM TU, [Au], Table 8, strain not given",1.4 µM
same,activity enhancement,[1]; at 54 mM TU,4 fold
"O.O.O.[Cl][Au-]([Cl])([Cl])[Cl].[H+] [HAuCl4 (Au^3+), tetrachloroauric(III) acid trihydrate]",MIC (0 mM TU),"[1]; [Au], Table 9",40 µM
same,activity enhancement,[1]; 7 mM TU vs alone,32 fold
same,MIC (7 mM TU),"[1]; [Au], Table 9",1.3 µM
same,Enhancement,[1]; Table 9,32
O=C(O)c1cn(C2CC2)c2cc(N3CCNCC3)c(F)cc2c1=O [ciprofloxacin],change in MIC / activity with the addition of TU (isobologram),[1],very little change; also recorded: almost no change
"NC(N)=S [TU, thiourea]",MIC,[1]; PAO1,16 mg/mL
colistin,MIC,[2],0.001 mg/mL
